Experimental data: PMC10420772, “Characteristics of alanine racemase in Lactobacillus sakei ZH‐2 strain” (Food Science & Nutrition, 2023)
One block for each molecule: values may come before it.

Columns and labels:
[1] = biological target: T1, rALRase (recombinant alanine racemase of Lactobacillus sakei ZH-2) (Latilactobacillus sakei, UniProt Q38V64, T117A); experiment: racemase activity with and without PLP, D-amino acid oxidase/LDH-coupled; assay type: biochemical; conditions: L-alanine substrate; 10 mM PLP in the standard assay, pH 9.0
T1 construct: gene alr; pCold I in E. coli BL21, His-tag purified, tag removed with Factor Xa

purified protein = substrate: C[C@H](N)C(=O)O; experiment: purified protein; conditions: L-alanine 0.1-50 mM, L to D direction, standard assay 50 mM CHES-NaOH pH 9.0, 10 mM PLP, 37 °C

fold activity with PLP versus without [1]: 1.5–2 times
Molecule: Cc1ncc(COP(=O)(O)O)c(C=O)c1O [pyridoxal phosphate]

B1: rALRase (recombinant alanine racemase of Lactobacillus sakei ZH-2) (Latilactobacillus sakei subsp. sakei 23K; T117A) (protein)
chain: MTVGYLRPTRILVDQNAIYENIQNELKHLEGTDTVIFPVLKANAYGHGLIPVAEAAQAAGAAGFCVALLDEALALRRANFTEPILVLGITQPSEIELAAANQISLTVGSLEWLQEAAAIAQQVPYLHPVPIHLSIDSGMGRIGMRDEAELLAAYTFIKAHSDYFDFEGVFTHFATADDPDDTYFKEQSARFNQLMTALPERPRFVHVSNSATSLWHAACNGNIIRMGISLYGLNPSGNAIPDLPYPLKQALGIESELVFVKQVAAGTKIGYGATYEASEGEWIGTIPMGYADGWLRRMQGSTVLVDGQRCEIVGRICMDQMMIRLPKRYPVGTKVVFVGKSGDDEITLQEVADYADTIHYEIICDLSDRIPRVYTGLNEH
Km (purified protein): 1320 µM
